Laboratory results taken from ChEMBL document CHEMBL5360652, “Drug Discovery Targeting Nuclear Receptor Binding SET Domain Protein 2 (NSD2)” (J Med Chem, 2023).
Counter-ions that a name gives are not always drawn. Blank lines part the entries; values can stand above or below the compound they belong to.

How the values were obtained:
[1] = molecular target: T1, Histone-lysine N-methyltransferase, H3 lysine-36 specific (Homo sapiens, UniProt Q96L73); assay: Inhibition of human recombinant NSD1 incubated for 2 hrs by AlphaLISA method
T1 sequence (Q96L73 whole entry): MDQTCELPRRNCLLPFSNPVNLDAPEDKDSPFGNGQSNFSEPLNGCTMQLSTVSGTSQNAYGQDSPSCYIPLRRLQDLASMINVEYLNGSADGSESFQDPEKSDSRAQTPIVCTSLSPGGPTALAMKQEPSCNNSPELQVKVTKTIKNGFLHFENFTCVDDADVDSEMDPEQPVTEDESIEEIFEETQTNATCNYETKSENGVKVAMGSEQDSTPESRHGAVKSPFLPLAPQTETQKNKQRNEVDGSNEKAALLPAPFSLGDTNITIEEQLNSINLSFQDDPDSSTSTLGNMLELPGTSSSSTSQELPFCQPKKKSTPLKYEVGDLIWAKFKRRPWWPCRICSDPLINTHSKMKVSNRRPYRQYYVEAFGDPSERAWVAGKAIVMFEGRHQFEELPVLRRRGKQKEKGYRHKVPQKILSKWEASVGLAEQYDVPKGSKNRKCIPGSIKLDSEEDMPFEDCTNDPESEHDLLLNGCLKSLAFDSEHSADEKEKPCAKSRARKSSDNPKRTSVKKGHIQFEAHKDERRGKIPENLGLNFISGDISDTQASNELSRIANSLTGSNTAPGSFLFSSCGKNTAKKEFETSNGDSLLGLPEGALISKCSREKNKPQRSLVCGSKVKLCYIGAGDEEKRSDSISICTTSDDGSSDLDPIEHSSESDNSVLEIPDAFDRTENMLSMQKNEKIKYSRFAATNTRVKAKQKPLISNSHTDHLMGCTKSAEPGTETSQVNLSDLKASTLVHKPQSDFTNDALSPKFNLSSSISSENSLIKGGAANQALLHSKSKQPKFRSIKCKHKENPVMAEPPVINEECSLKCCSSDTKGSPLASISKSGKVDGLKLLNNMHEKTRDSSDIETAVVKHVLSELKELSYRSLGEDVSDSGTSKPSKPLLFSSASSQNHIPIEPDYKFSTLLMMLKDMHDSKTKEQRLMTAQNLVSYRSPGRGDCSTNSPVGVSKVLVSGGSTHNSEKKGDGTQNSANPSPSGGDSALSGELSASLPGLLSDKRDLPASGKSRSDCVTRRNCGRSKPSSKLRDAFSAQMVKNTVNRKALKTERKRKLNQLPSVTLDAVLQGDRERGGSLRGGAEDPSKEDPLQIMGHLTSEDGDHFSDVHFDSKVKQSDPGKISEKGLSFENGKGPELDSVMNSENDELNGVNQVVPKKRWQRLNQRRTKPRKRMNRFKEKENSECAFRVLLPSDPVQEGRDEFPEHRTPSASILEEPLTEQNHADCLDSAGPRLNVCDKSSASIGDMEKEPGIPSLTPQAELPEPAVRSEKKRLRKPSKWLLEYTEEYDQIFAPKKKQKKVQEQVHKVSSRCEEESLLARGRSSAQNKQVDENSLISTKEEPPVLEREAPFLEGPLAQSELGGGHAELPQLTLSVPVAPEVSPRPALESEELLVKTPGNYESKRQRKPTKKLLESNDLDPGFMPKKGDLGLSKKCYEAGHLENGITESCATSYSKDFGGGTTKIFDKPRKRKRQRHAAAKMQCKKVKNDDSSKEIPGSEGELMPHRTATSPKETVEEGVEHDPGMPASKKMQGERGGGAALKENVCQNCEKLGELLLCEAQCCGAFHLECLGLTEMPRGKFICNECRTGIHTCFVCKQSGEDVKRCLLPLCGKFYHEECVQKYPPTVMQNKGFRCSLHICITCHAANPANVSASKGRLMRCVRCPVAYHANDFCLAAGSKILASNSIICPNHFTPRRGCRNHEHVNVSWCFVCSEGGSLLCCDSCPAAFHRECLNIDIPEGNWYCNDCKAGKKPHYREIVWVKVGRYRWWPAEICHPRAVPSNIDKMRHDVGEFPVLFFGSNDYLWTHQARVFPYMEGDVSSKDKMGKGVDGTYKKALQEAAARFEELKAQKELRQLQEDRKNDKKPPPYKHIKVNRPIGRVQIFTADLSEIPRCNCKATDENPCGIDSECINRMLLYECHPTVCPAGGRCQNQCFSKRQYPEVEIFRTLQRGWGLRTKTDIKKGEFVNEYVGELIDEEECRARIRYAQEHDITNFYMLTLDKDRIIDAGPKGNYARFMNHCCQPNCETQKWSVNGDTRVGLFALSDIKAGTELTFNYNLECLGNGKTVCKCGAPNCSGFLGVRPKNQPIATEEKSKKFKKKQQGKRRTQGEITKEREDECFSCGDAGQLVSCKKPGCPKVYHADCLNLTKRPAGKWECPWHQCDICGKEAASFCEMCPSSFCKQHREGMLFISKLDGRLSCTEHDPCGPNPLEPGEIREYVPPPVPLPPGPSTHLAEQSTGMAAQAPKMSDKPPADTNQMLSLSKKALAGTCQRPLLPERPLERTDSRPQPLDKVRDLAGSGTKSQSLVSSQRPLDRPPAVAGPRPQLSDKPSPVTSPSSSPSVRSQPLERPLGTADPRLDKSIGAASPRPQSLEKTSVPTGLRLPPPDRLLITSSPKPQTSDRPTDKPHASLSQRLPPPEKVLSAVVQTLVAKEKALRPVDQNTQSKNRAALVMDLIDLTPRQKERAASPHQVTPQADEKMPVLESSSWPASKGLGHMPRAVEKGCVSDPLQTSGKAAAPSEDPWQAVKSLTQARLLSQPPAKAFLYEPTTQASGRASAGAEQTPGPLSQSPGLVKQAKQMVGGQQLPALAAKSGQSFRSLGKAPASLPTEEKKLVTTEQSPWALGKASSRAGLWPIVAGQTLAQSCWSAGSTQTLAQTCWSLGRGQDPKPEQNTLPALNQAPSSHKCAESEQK

[2] = molecular target: Histone-lysine N-methyltransferase NSD2 (Homo sapiens, UniProt O96028, E1099K); assay: Inhibition of NSD2 E1099K mutant (unknown origin)
Chain of Histone-lysine N-methyltransferase NSD2 (Homo sapiens, UniProt O96028, E1099K) (O96028 whole entry E1099K): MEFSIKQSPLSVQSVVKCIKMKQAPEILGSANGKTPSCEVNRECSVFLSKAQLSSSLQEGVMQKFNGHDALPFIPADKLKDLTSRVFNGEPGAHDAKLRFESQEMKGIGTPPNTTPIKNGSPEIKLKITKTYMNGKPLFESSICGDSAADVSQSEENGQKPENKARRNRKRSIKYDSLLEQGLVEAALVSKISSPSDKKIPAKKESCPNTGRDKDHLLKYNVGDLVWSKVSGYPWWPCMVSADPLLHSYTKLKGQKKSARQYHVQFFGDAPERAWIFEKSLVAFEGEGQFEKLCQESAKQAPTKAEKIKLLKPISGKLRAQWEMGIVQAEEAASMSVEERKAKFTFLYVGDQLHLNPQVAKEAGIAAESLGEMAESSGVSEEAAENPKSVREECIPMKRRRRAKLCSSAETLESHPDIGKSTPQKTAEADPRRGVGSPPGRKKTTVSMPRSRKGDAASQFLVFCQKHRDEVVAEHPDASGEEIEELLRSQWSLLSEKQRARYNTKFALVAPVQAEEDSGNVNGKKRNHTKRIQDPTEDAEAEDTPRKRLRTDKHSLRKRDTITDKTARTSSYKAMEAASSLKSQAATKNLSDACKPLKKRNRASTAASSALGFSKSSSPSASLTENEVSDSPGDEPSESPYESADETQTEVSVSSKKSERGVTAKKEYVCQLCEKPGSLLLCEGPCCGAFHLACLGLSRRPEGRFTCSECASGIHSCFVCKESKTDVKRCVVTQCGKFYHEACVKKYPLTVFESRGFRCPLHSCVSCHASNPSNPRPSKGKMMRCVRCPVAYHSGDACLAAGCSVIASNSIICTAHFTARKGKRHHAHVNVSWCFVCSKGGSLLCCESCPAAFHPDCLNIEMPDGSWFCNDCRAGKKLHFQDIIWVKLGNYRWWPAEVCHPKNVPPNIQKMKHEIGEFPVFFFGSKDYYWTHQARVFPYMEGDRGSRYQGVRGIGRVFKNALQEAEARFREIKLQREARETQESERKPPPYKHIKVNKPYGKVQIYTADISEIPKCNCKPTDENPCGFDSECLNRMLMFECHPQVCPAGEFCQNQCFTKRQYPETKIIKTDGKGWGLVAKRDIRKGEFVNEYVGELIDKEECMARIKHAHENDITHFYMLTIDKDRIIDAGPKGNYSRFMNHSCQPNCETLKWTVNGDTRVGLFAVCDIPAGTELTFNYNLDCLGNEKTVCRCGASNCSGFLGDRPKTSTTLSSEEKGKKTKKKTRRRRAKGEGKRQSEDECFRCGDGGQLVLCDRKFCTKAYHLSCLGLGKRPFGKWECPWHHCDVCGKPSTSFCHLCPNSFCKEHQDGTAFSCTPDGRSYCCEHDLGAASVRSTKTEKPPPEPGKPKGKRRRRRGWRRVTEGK

[3] = molecular target: Histone-lysine N-methyltransferase NSD2 (Homo sapiens, UniProt O96028, T1150A); assay: Inhibition of NSD2 T1150A mutant (unknown origin)
Chain of Histone-lysine N-methyltransferase NSD2 (Homo sapiens, UniProt O96028, T1150A) (O96028 whole entry T1150A): as the sequence (O96028 whole entry E1099K) above, with K1099E, T1150A counted along it

U2OS = assay: Cytotoxicity against human U2OS cells assessed as cell growth inhibition; assay type: functional
[4] = molecular target: von Hippel-Lindau disease tumor suppressor/Histone-lysine N-methyltransferase NSD3 (Homo sapiens, UniProt P40337+Q9BZ95); assay: Protac activity at VHL/NSD3 in human MOLM-13 cells assessed as induction of NSD3 degradation incubated for 6 hrs by immunoblotting analysis; assay type: cell-based
Chain of von Hippel-Lindau disease tumor suppressor/Histone-lysine N-methyltransferase NSD3 (P40337 whole entry, one chain of several): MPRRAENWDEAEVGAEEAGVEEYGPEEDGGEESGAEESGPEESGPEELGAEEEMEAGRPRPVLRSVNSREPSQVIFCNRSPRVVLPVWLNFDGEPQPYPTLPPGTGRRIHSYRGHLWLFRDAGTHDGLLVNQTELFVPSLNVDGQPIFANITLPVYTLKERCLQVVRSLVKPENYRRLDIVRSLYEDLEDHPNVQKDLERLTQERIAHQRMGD

[5] = molecular target: von Hippel-Lindau disease tumor suppressor/Histone-lysine N-methyltransferase NSD3 (Homo sapiens) (UniProt Q9BZ95+P40337); assay: Protac activity at VHL/NSD3 in human MOLM-13 cells assessed as induction of NSD3 degradation incubated for 48 hrs by immunoblotting analysis relative to control; assay type: cell-based
Chain of von Hippel-Lindau disease tumor suppressor/Histone-lysine N-methyltransferase NSD3 (Homo sapiens) (P40337 whole entry, looked up, one chain of several, the tested form may be a part): as the sequence (P40337 whole entry, one chain of several) above

[6] = molecular target: T2, Histone-lysine N-methyltransferase NSD3 (Homo sapiens, UniProt Q9BZ95); assay: Binding affinity to human recombinant NSD3 PWWP1 domain assessed as dissociation constant
T2 sequence (Q9BZ95 whole entry): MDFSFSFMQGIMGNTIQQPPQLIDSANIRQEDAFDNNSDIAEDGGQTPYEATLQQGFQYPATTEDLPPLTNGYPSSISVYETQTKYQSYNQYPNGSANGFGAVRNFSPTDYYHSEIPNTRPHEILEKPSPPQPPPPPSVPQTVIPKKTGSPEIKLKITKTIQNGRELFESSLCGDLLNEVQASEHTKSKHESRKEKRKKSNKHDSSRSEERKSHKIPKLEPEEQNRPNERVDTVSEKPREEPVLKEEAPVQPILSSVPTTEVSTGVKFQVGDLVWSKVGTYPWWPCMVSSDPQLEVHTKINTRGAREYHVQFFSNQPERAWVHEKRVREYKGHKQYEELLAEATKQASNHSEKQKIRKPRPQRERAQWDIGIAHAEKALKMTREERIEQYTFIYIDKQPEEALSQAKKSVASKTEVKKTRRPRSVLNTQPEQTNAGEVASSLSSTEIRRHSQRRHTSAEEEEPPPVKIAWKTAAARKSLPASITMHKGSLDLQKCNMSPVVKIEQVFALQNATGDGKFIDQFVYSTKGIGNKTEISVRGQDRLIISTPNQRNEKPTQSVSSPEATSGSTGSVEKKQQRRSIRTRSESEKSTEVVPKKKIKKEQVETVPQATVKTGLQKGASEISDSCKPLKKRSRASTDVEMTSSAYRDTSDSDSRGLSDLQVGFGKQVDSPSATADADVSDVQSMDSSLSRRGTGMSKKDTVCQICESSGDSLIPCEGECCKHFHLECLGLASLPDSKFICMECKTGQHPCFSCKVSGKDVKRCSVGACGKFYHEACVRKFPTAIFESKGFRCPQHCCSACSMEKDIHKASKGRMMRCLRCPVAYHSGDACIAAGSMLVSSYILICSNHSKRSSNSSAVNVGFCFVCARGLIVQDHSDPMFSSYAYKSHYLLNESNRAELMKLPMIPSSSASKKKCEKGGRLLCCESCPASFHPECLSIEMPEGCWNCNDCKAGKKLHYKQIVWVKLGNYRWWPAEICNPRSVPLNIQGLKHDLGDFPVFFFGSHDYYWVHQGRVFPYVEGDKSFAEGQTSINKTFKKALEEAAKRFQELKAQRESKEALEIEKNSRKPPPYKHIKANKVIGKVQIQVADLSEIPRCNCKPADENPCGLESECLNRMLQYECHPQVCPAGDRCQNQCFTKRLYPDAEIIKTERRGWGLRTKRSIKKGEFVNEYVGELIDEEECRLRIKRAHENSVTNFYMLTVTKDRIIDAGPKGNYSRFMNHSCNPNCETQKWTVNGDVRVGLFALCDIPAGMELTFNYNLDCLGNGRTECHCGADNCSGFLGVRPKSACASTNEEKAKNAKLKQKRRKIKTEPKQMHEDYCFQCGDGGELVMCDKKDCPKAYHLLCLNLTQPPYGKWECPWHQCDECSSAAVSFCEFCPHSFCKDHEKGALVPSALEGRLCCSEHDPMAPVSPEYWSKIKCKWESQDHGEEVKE

[7] = molecular target: T1, Histone-lysine N-methyltransferase, H3 lysine-36 specific; assay: Binding affinity to NSD1 (unknown origin) assessed as dissociation constant by ITC assay
[8] = molecular target: T3, Histone-lysine N-methyltransferase NSD2 (Homo sapiens) (UniProt O96028); assay: Induction of degradation of NSD2 in human U2OS cells assessed as maximum degradation relative to control; assay type: cell-based
T3 sequence (whole entry): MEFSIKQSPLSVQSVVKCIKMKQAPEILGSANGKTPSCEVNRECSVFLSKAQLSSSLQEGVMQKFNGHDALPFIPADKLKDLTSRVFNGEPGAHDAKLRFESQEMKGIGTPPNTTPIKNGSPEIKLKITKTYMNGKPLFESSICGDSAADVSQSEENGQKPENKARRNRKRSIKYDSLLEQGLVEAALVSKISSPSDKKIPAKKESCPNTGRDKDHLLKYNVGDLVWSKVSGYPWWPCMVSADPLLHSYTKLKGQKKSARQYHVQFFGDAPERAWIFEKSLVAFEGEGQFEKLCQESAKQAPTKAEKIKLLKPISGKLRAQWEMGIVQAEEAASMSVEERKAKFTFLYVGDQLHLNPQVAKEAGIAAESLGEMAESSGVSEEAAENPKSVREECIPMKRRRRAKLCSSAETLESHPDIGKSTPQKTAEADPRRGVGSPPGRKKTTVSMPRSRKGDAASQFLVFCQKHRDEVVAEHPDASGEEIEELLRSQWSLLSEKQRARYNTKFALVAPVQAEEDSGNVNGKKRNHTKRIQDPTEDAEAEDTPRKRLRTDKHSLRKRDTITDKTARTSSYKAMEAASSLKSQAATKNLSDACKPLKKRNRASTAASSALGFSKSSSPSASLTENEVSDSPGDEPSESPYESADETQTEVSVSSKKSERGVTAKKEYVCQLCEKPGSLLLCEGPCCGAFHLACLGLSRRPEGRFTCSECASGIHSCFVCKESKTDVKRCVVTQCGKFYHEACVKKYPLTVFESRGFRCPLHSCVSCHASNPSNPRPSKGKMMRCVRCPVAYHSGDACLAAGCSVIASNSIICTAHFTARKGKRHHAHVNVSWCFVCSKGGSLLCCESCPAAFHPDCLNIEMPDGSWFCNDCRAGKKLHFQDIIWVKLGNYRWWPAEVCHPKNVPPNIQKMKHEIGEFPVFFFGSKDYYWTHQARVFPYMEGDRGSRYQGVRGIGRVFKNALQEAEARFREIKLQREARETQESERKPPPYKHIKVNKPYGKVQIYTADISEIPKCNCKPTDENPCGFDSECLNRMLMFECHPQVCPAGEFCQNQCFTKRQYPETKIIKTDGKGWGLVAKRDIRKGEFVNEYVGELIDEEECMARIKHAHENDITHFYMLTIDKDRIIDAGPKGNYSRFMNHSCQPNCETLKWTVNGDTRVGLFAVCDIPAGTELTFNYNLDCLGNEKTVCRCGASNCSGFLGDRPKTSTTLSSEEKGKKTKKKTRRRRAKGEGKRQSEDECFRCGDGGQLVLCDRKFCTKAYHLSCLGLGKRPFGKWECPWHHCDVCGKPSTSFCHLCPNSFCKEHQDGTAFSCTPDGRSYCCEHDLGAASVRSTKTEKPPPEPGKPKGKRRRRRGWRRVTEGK

[9] = molecular target: T4, Histone-lysine N-methyltransferase NSD2 (Homo sapiens, UniProt O96028); assay: Induction of degradation of NSD2 in human U2OS cells; assay type: cell-based
T4 sequence (O96028 whole entry): T3 sequence (whole entry)

[10] = Inhibition of N-terminal hexa-histidine tagged NSD3 SET domain (1066 to 1288 residues) (unknown origin) expressed in Escherichia coli incubated for 4 hrs by ITC method; set-up: species or system Homo sapiens
[11] = molecular target: T4, Histone-lysine N-methyltransferase NSD2; assay: Binding affinity to NSD2 PWWP1 domain (unknown origin) assessed as dissociation constant
[12] = molecular target: T4, Histone-lysine N-methyltransferase NSD2; assay: Binding affinity to NSD2 PWWP1 domain (unknown origin) assessed as dissociation constant by SPR assay
[13] = molecular target: T3, Histone-lysine N-methyltransferase NSD2 (Homo sapiens); assay: Inhibition of NSD2 (unknown origin) at 50 uM relative to control
[14] = molecular target: T1, Histone-lysine N-methyltransferase, H3 lysine-36 specific; assay: Inhibition of human recombinant NSD1 ([…] residues) expressed in Escherichia coli BL21 (DE3) incubated for 4 hrs by scintillation/filter assay
[15] = molecular target: T2, Histone-lysine N-methyltransferase NSD3; assay: Inhibition of human recombinant NSD3 ([…] residues) expressed in Escherichia coli BL21 (DE3) incubated for 4 hrs by scintillation/filter assay

IC50 [2]: 110 nM | IC50 [3]: 170 nM
SMILES: O=C1C(Cl)=C(NCCN2CCOCC2)C(=O)c2ncccc21
CC50 (U2OS): 270 nM

Kd [7]: 1400 nM
SMILES: CCN(CC)CCCC(C)Nc1c2ccc(Cl)cc2nc2ccc(OC)cc12 (configuration not stated) [QUINACRINE DIHYDROCHLORIDE]

Emax [8]: 79% | EC50 [9]: 350 nM
SMILES: NCCCCCCNC(=O)c1ccc(NC(=O)c2ccc(CN(C(=O)c3ccc4c(c3)OCC(=O)N4)C3CC3)cc2)cc1

IC50 [1]: 160 nM
SMILES: COC[C@@]1(N)CCCN(c2cnc(-c3ccc(F)c(F)c3)cc2Cn2cnc3c(N)ncnc32)C1

Kd [12]: 14 nM | Emax [8]: 81% | EC50 [9]: 1200 nM
SMILES: N=C(N)NCCC[C@H](N)C(=O)NCCCCCCNC(=O)c1ccc(NC(=O)c2ccc(CN(C(=O)c3ccc4c(c3)OCC(=O)N4)C3CC3)cc2)cc1

The remaining lines, values behind:

SMILES: COC[C@@]1(N)CCCN(c2cnc(-c3cc(Cl)ccc3F)cc2Cn2cnc3c(N)ncnc32)C1
IC50 [1]: 248 nM

SMILES: Cc1cc(CNCCCC(=O)NCCCCCCCCC(=O)N[C@H](C(=O)N2C[C@H](O)C[C@H]2C(=O)N[C@@H](C)c2ccc(-c3scnc3C)cc2)C(C)(C)C)cc(C)c1-c1ncn(C)c1-c1ccnc2cc(F)ccc12
EC50 [4]: 4900 nM | Emax [5]: 80% | Kd [6]: 1300 nM

SMILES: COC[C@@]1(N)CCCN(c2cnc(-c3ccc(F)cc3F)cc2Cn2cnc3c(N)ncnc32)C1
IC50 [1]: 225 nM

SMILES: CC1CN1c1cc(O)c2nc(N)sc2c1 (configuration not stated)
IC50 [10]: 14300 nM

SMILES: O=C(CCCC[C@@H]1SC[C@@H]2NC(=O)N[C@@H]21)NCCOCCOCCOCCOCCOCCOCCOCCOCCOCCOCCOCCNC(=O)c1ccc(NC(=O)c2ccc(CN(C(=O)c3ccc4c(c3)OCC(=O)N4)C3CC3)cc2)cc1
Kd [11]: 46 nM | Kd [6]: 46 nM

SMILES: CC(=O)c1ccc(-c2cc(NC(=O)Nc3ccc4nnsc4c3)cc(C(F)(F)F)c2)s1
inhibition [13]: 99%

SMILES: O=C(Nc1cccc([N+](=O)[O-])c1)Nc1ccc2nnsc2c1
inhibition [13]: 96%

SMILES: COc1cc2nc(N3CCCN(C)CC3)nc(NC3CCN(Cc4ccccc4)CC3)c2cc1OC
IC50 [14]: 112000 nM | IC50 [15]: 95000 nM
